According to ChEMBL document CHEMBL1949591, “Reversal of multidrug resistance by morning glory resin glycosides in human breast cancer cells” (J Nat Prod, 2012):
≈ marks a conversion by molar mass, not a printed value.

How the values were obtained:
[1] = tested on: MCF7; experiment: Reversal of p-glycoprotein-mediated drug resistant in vinblastine-resistant human MCF7 cells assessed as ratio of IC50 for vinblastin to IC50 for vinblastin in presence of compound at 25 ug/ml after 72 hrs by SRB assay; assay type: cell-based
[2] = tested on: MCF7; experiment: Reversal of p-glycoprotein-mediated drug resistant in vinblastine-sensitive human MCF7 cells assessed as ratio of IC50 for vinblastin to IC50 for vinblastin in presence of compound at 25 ug/ml after 72 hrs by SRB assay; assay type: cell-based
[3] = tested on: MCF7; experiment: Reversal of p-glycoprotein-mediated drug resistant in human MCF7 cells grown in vinblastine-free medium assessed as ratio of IC50 for vinblastin to IC50 for vinblastin in presence of compound at 25 ug/ml after 72 hrs by SRB assay; assay type: cell-based
[4] = tested on: MCF7; experiment: Inhibition of p-glycoprotein expression in vinblastine-sensitive human MCF7 cells at 25 ug/ml after 24 hrs by immunofluorescence flow cytometry relative to control; assay type: functional; details: MCF7, 24 h
[5] = molecular target: T1, ATP-dependent translocase ABCB1 (Homo sapiens, UniProt P08183); experiment: Inhibition of p-glycoprotein in vinblastine-sensitive human MCF7 cells assessed as decrease in rhodamine 123 accumulation at 25 ug/ml after 30 mins by flow cytometry; assay type: cell-based; details: mcf7, 0.5 h
[6] = molecular target: T1, ATP-dependent translocase ABCB1; experiment: Inhibition of p-glycoprotein in vinblastine-sensitive human MCF7 cells assessed as decrease in rhodamine 123 accumulation at 25 ug/ml after 30 mins followed by washout measured after […] by flow cytometry; assay type: cell-based; details: mcf7, 0.5 h
[7] = tested on: MCF7; experiment: Cytotoxicity against vinblastine-resistant human MCF7 cells after 72 hrs by SRB assay; assay type: functional, cell-based; details: MCF7, 72 h
[8] = tested on: MCF7; experiment: Inhibition of p-glycoprotein expression in vinblastine-sensitive human MCF7 cells at 5 ug/ml after 24 hrs by immunofluorescence flow cytometry relative to control; assay type: functional; details: MCF7, 24 h
[9] = molecular target: T1, ATP-dependent translocase ABCB1; experiment: Inhibition of p-glycoprotein in vinblastine-sensitive human MCF7 cells assessed as decrease in rhodamine 123 accumulation at 5 ug/ml after 30 mins by flow cytometry; assay type: cell-based; details: mcf7, 0.5 h

T1 sequence (P08183 whole entry): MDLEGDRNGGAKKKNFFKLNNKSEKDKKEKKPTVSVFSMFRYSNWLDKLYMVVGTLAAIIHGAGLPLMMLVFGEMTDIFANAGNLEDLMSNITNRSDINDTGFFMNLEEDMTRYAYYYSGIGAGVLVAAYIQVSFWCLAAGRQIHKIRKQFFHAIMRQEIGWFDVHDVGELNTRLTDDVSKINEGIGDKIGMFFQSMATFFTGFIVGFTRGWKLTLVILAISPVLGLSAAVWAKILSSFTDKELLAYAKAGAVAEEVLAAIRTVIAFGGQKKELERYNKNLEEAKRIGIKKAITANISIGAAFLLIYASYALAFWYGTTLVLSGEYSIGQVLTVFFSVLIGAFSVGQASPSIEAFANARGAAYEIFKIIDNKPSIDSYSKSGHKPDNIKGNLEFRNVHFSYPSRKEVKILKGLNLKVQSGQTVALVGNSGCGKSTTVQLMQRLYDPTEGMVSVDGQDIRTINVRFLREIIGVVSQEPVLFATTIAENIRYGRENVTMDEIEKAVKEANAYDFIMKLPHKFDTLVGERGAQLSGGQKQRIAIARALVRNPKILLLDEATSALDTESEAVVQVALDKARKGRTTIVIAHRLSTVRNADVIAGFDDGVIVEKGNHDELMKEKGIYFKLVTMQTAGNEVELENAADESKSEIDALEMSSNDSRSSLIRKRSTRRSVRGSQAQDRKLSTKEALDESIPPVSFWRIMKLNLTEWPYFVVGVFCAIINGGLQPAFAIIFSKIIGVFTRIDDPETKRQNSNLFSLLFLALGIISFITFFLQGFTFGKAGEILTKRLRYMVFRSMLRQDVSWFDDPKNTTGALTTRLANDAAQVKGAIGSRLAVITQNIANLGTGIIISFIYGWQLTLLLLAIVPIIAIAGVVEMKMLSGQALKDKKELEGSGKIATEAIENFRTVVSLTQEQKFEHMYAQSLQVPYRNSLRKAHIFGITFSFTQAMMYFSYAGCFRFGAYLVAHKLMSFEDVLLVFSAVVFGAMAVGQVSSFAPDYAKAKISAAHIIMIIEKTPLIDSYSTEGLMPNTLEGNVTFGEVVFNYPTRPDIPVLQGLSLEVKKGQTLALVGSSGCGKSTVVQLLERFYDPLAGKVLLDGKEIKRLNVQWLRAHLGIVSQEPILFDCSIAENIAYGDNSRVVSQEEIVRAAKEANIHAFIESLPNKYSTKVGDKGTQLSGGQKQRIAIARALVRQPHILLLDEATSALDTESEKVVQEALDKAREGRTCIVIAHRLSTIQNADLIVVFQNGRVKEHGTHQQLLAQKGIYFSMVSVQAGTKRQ

SMILES | Ratio IC50 [1] | Ratio IC50 [2] | Ratio IC50 [3] | IC50 [7] [µg/mL] | other results
CCCCC[C@H]1CCCCCCCCCC(=O)O[C@H]2[C@H](O)[C@@H](CO)O[C@@H](O[C@H]3[C@H](O1)O[C@H](C)[C@H](O)[C@@H]3O)[C@@H]2O[C@@H]1O[C@@H](C)[C@H](OC(=O)[C@@H](C)CC)[C@@H](O[C@@H]2O[C@@H](C)[C@H](O)[C@@H](O)[C@H]2O)[C@H]1OC(=O)[C@@H](C)CC | > 1910 | 47 | > 1590 | – | –
CCCCC[C@H]1CCCCCCCCCC(=O)O[C@H]2[C@H](O[C@H]3[C@H](O1)O[C@H](C)[C@H](O)[C@@H]3O)O[C@@H](C)[C@H](O[C@@H]1O[C@@H](C)[C@H](O[C@@H]3O[C@@H](C)[C@H](OC(=O)[C@@H](C)CC)[C@@H](O)[C@H]3O)[C@@H](OC(=O)[C@@H](C)CC)[C@H]1O)[C@H]2O | > 1910 | > 73.4 | > 1590 | – | –
CCCCC[C@H]1CCCCCCCCCC(=O)O[C@H]2[C@H](O[C@H]3[C@H](O1)O[C@H](C)[C@H](O)[C@@H]3O)O[C@@H](C)[C@H](O[C@@H]1O[C@@H](C)[C@H](O[C@@H]3O[C@@H](C)[C@H](OC(=O)[C@@H](C)CC)[C@@H](O)[C@H]3O)[C@@H](O[C@@H]3O[C@H](CO)[C@@H](O)[C@H](O)[C@H]3O)[C@H]1OC(=O)[C@@H](C)CC)[C@H]2O | > 1910 | > 73.4 | > 1590 | – | –
CCCCC[C@H]1CCCCCCCCCC(=O)O[C@H]2[C@H](O[C@H]3[C@H](O1)O[C@H](CO)[C@@H](O)[C@@H]3O)O[C@@H](C)[C@H](O[C@@H]1O[C@@H](C)[C@H](O[C@@H]3O[C@@H](C)[C@H](OC(=O)[C@@H](C)CC)[C@@H](O)[C@H]3O)[C@@H](O[C@@H]3O[C@@H](C)[C@H](O)[C@@H](O)[C@H]3O)[C@H]1OC(=O)[C@@H](C)CC)[C@H]2O | > 1910 | > 73.4 | > 1590 | – | –
CCCCC[C@H]1CCCCCCCCCC(=O)O[C@H]2[C@@H](O)[C@H](O[C@H]3[C@H](O1)O[C@H](C)[C@H](O)[C@@H]3O)O[C@@H](C)[C@@H]2O[C@@H]1O[C@@H](C)[C@H](O[C@@H]2O[C@@H](C)[C@H](OC(=O)[C@@H](C)CC)[C@@H](O)[C@H]2O)[C@@H](O[C@@H]2O[C@H](CO)[C@@H](O)[C@H](O)[C@H]2O)[C@H]1OC(=O)[C@@H](C)CC [MURUCOIDIN V] | 7.8 | 47 | 255 | – | inhibition at 25 µg/mL [4]: 30%; inhibition (INH) [5]: Active; inhibition (INH) [6]: Active
C/C=C(\C)C(=O)O[C@H]1[C@H](O)[C@@H](O)[C@H](O[C@@H]2[C@H]3OC(=O)CCCCCCCCC[C@H](CCCCC)O[C@@H]4O[C@H](C)[C@@H](O)[C@H](O)[C@H]4O[C@@H]4O[C@H](COC(=O)[C@@H](C)CC)[C@@H](O)[C@H](O)[C@H]4O[C@H](O[C@H]2C)[C@@H]3OC(=O)[C@H](C)[C@@H](C)O)O[C@@H]1C [ORIZABIN XIV] | – | – | – | 1.5 (≈ 1.34 µM) | –
C/C=C(\C)C(=O)O[C@H]1[C@H](O)[C@@H](O)[C@H](O[C@@H]2[C@H]3OC(=O)CCCCCCCCC[C@H](CCCCC)O[C@@H]4O[C@H](C)[C@@H](O)[C@H](O)[C@H]4O[C@@H]4O[C@H](COC(=O)C(C)C)[C@@H](O)[C@H](O)[C@H]4O[C@H](O[C@H]2C)[C@@H]3OC(=O)[C@@H](C)[C@H](C)O)O[C@@H]1C [ORIZABIN XI] | – | – | – | 1.5 (≈ 1.35 µM) | –
C/C=C(\C)C(=O)O[C@H]1[C@H](O)[C@@H](O)[C@H](O[C@@H]2[C@H]3OC(=O)CCCCCCCCC[C@H](CCCCC)O[C@@H]4O[C@H](C)[C@@H](O)[C@H](O)[C@H]4O[C@@H]4O[C@H](COC(=O)[C@@H](C)[C@H](C)O)[C@@H](O)[C@H](O)[C@H]4O[C@H](O[C@H]2C)[C@@H]3OC(=O)[C@@H](C)CC)O[C@@H]1C [ORIZABIN XVII] | – | – | – | 1.5 (≈ 1.34 µM) | –
C/C=C(\C)C(=O)O[C@H]1[C@H](O)[C@@H](O)[C@H](O[C@@H]2[C@H]3OC(=O)CCCCCCCCC[C@H](CCCCC)O[C@@H]4O[C@H](C)[C@@H](O)[C@H](O)[C@H]4O[C@@H]4O[C@H](COC(=O)[C@H](C)[C@@H](C)O)[C@@H](O)[C@H](O)[C@H]4O[C@H](O[C@H]2C)[C@@H]3OC(=O)[C@@H](C)CC)O[C@@H]1C [ORIZABIN XVI] | – | – | – | 1.5 (≈ 1.34 µM) | –
CCCCC[C@H]1CCCCCCCCCC(=O)O[C@@H]2[C@@H](O[C@@H]3O[C@H](C)[C@@H](OC(=O)[C@@H](C)CC)[C@H](O)[C@H]3O)[C@H](C)O[C@@H](O[C@H]3[C@H](O[C@H]4[C@H](O1)O[C@H](C)[C@@H](O)[C@@H]4O)O[C@H](COC(=O)[C@@H](C)[C@H](C)O)[C@@H](O)[C@@H]3O)[C@@H]2OC(=O)[C@@H](C)CC [ORIZABIN XXI] | – | – | – | 1.5 (≈ 1.34 µM) | –
CCCCC[C@H]1CCCCCCCCCC(=O)O[C@@H]2[C@@H](O[C@@H]3O[C@H](C)[C@@H](OC(=O)[C@@H](C)CC)[C@H](O)[C@H]3O)[C@H](C)O[C@@H](O[C@H]3[C@H](O[C@H]4[C@H](O1)O[C@H](C)[C@@H](O)[C@@H]4O)O[C@H](COC(=O)[C@H](C)[C@@H](C)O)[C@@H](O)[C@@H]3O)[C@@H]2OC(=O)[C@@H](C)CC [ORIZABIN XX] | – | – | – | 1.5 (≈ 1.34 µM) | –
C/C=C(\C)C(=O)O[C@H]1[C@H](O)[C@@H](O)[C@H](O[C@@H]2[C@H]3OC(=O)CCCCCCCCC[C@H](CCCCC)O[C@@H]4O[C@H](C)[C@@H](O)[C@H](O)[C@H]4O[C@@H]4O[C@H](COC(=O)C(C)C)[C@@H](O)[C@H](O)[C@H]4O[C@H](O[C@H]2C)[C@@H]3OC(=O)[C@H](C)[C@@H](C)O)O[C@@H]1C [ORIZABIN X] | – | – | – | 1.5 (≈ 1.35 µM) | –
COC(=O)[C@H]1[C@H]2C[C@@H]3c4[nH]c5cc(OC)ccc5c4CCN3C[C@H]2C[C@@H](OC(=O)c2cc(OC)c(OC)c(OC)c2)[C@@H]1OC [RESERPINE] | – | – | – | – | inhibition at 5 µg/mL [8]: 38%; inhibition (INH) [9]: Active
